Measured values published in patent US20260124324A1, “PHOTOCLICK CHEMISTRY OF SILK FOR TEMPORARY UV TATTOOS” (Trustees of Tufts College, priority 2023, published 2026).

Assays:
[1] = tested on: human dermal fibroblasts (hDFs); experiment: 2D cell morphology by bright field transmission microscopy; format: cell-based; details: positive control, 1% in media, 24 hour incubation
Description: Images were taken with a Motic AE2000 inverted microscope in bright field transmission through the bottom of transparent 96 well plates. Images from 2D cell culture were processed in GNU Image Manipulation Program V 2.10.12. Contrast was enhanced by changing light and dark levels to maximize the dynamic range of the image. The illumination artifacts were removed by creating a duplicate image on a separate layer and blurring it with a Gaussian blur strength 12.0. This layer was placed below the normal layer, and the two layers were mixed in the “Grain Extract” mixing mode. This process inverts the colors, so the color was inverted again to restore the original orientation.
Cellular morphology is an independent method of assessing cellular health. When healthy, cells like hDFs will adhere to flat plates in 2D culture and multiply rapidly, until they form a confluent layer. The pressure from surrounding cells tends to cause the cells to adopt an elongated and tubular morphology, often aligned with their neighboring cells. When cells are damaged, they will often suffer cytoskeletal damage and will lose their elongated morphology. Dead HDFs will be at the extreme end of this trend, appearing as very small spheres, devoid of cytoskeleton entirely.

[2] = tested on: human dermal fibroblasts (hDFs); experiment: Fluorescence microscopy of tattooed 3D skin-simulating scaffolds; format: cell-based; details: 7 days after tattooing, phalloidin and DAPI staining
Description: Cell-laden 3D scaffolds were fixed in a 2% formalin solution in PBS for 2 hours with gentle oscillatory mixing. All subsequent washing steps were performed for 30 minutes with oscillatory mixing with the indicated solution. The formalin solution was then decanted, and the scaffolds were washed 3 times with DI water. The cell membranes were permeabilized by washing the scaffolds with acetone solution (50% v/v acetone in 1×PBS) for 30 minutes. The samples were then washed 3 times with PBS-T (1×PBS, […]), then blocked with 1 mg/mL BSA in PBS-T (1×PBS, 0.1% Triton X-100). Actin was stained with phalloidin-488 (Invitrogen A12379) for 1 hour, then washed 3 times with 1×PBS. Nuclei were stained with DAPI (Invitrogen D3571) for 30 minutes then washed with PBS 3 times. Scaffolds were stored in 1×PBS at 4 C until imaged.
Fixed and stained samples as well as tattooed imaging phantoms were imaged with a Keyence BZ-X710 all-in-one fluorescence microscope. The DAPI filter channel (ex/em 355/450) was used to image both the DAPI stain, fluorescent pyrazoline-laden microparticles, and aqueous SilMA-pyrazoline tattoo inks. The GFP channel (ex/em 488/510) was used to image the phalloidin-stained actin.
Silk fibroin solution (5% w/w) was pipetted into a 24 well plate (1.5 mL per well) and frozen at −20 C. […]

[3] = tested on: human dermal fibroblasts (hDFs); experiment: 2D metabolic toxicity assay (MTT); details: positive control, 1% in media, 24 hours

## Triton X-100
[1]
  cellular morphology: small hard spheres indicative of dead cells
[2]
  cell morphology / localized cytotoxicity in 3D scaffold: only background fluorescence
[3]
  metabolic capacity (MTT): completely destroyed the metabolic capacity of the cells
